Source: ChEMBL document CHEMBL3994622, “Design and synthesis of new RAF kinase-inhibiting antiproliferative quinoline derivatives. Part 2: Diarylurea derivatives” (Eur J Med Chem, 2017)

Experiments:
Format in all cases: functional
[1] = test system: MOLT-4; assay: Growth inhibition of human MOLT4 cells incubated for 48 hrs by sulforhodamine B assay; conditions: MOLT-4, 48 h
[2] = test system: EKVX; assay: Growth inhibition of human EKVX cells incubated for 48 hrs by sulforhodamine B assay
[3] = test system: HOP-62; assay: Growth inhibition of human HOP62 cells incubated for 48 hrs by sulforhodamine B assay; conditions: HOP-62, 48 h
[4] = test system: NCI-H322M; assay: Growth inhibition of human NCI-H322M cells incubated for 48 hrs by sulforhodamine B assay
[5] = test system: NCI-H460; assay: Growth inhibition of human NCI-H460 cells incubated for 48 hrs by sulforhodamine B assay; conditions: NCI-H460, 48 h
[6] = test system: NCI-H522; assay: Growth inhibition of human NCI-H522 cells incubated for 48 hrs by sulforhodamine B assay; conditions: NCI-H522, 48 h
[7] = test system: COLO 205; assay: Growth inhibition of human COLO205 cells incubated for 48 hrs by sulforhodamine B assay; conditions: COLO 205, 48 h
[8] = test system: HCC 2998; assay: Growth inhibition of human HCC2998 cells incubated for 48 hrs by sulforhodamine B assay; conditions: HCC 2998, 48 h
[9] = test system: SNB-19; assay: Growth inhibition of human SNB19 cells incubated for 48 hrs by sulforhodamine B assay; conditions: SNB-19, 48 h
[10] = test system: Malme-3M; assay: Growth inhibition of human MALME-3M cells incubated for 48 hrs by sulforhodamine B assay
[11] = test system: M14; assay: Growth inhibition of human M14 cells incubated for 48 hrs by sulforhodamine B assay; conditions: M14, 48 h
[12] = test system: MDA-MB-435; assay: Growth inhibition of human MDA-MB-435 cells incubated for 48 hrs by sulforhodamine B assay; conditions: MDA-MB-435, 48 h
[13] = test system: SK-MEL-2; assay: Growth inhibition of human SK-MEL-2 cells incubated for 48 hrs by sulforhodamine B assay; conditions: SK-MEL-2, 48 h
[14] = test system: SK-MEL-5; assay: Growth inhibition of human SK-MEL-5 cells incubated for 48 hrs by sulforhodamine B assay; conditions: SK-MEL-5, 48 h
[15] = test system: UACC-62; assay: Growth inhibition of human UACC62 cells incubated for 48 hrs by sulforhodamine B assay; conditions: UACC-62, 48 h
[16] = test system: IGROV-1; assay: Growth inhibition of human IGROV1 cells incubated for 48 hrs by sulforhodamine B assay; conditions: IGROV-1, 48 h
[17] = test system: OVCAR-4; assay: Growth inhibition of human OVCAR4 cells incubated for 48 hrs by sulforhodamine B assay; conditions: OVCAR-4, 48 h
[18] = test system: OVCAR-5; assay: Growth inhibition of human OVCAR5 cells incubated for 48 hrs by sulforhodamine B assay; conditions: OVCAR-5, 48 h
[19] = test system: CAKI-1; assay: Growth inhibition of human Caki1 cells incubated for 48 hrs by sulforhodamine B assay; conditions: CAKI-1, 48 h
[20] = test system: SN12C; assay: Growth inhibition of human SN12C cells incubated for 48 hrs by sulforhodamine B assay
[21] = test system: MCF7; assay: Growth inhibition of human MCF7 cells incubated for 48 hrs by sulforhodamine B assay; conditions: MCF7, 48 h
[22] = test system: MOLT-4; assay: Growth inhibition of human MOLT4 cells assessed as cell growth at 0.01 uM incubated for 48 hrs by sulforhodamine B assay relative to control; conditions: MOLT-4, 48 h, read-out: Activity
[23] = test system: CCRF-CEM; assay: Growth inhibition of human CCRF-CEM cells assessed as cell growth at 0.1 uM incubated for 48 hrs by sulforhodamine B assay relative to control; conditions: read-out: Activity
[24] = test system: HL-60(TB); assay: Growth inhibition of human HL-60(TB) cells assessed as cell growth at 1 uM incubated for 48 hrs by sulforhodamine B assay relative to control; conditions: HL-60, 48 h, read-out: Activity
[25] = test system: HOP-92; assay: Growth inhibition of human HOP92 cells assessed as cell growth at 10 uM incubated for 48 hrs by sulforhodamine B assay relative to control; conditions: HOP-92, 48 h, read-out: Activity
[26] = test system: HCT-15; assay: Growth inhibition of human HCT15 cells assessed as cell growth at 10 uM incubated for 48 hrs by sulforhodamine B assay relative to control; conditions: HCT-15, 48 h, read-out: Activity
[27] = test system: MDA-MB-231; assay: Growth inhibition of human MDA-MB-231 cells assessed as cell growth at 10 uM incubated for 48 hrs by sulforhodamine B assay relative to control; conditions: MDA-MB-231, 48 h, read-out: Activity
[28] = test system: BT-549; assay: Growth inhibition of human BT549 cells assessed as cell growth at 10 uM incubated for 48 hrs by sulforhodamine B assay relative to control; conditions: BT-549, 48 h, read-out: Activity
[29] = read-out: LC50 (the source's name)

Structure (SMILES): COc1cc2cc(Oc3ccc(NC(=O)Nc4ccc(Cl)c(Cl)c4)cc3)c(C)nc2cc1OC
- GI50 [1]: 3.02 µM
- LC50 [1]: > 100 µM
- TGI [1]: 22.8 µM
- GI50 [2]: 2.36 µM
- LC50 (concentration killing 50% of cells) [2]: > 100 µM
- TGI [2]: 9.51 µM
- GI50 [3]: 3.55 µM
- TGI [3]: 11.9 µM
- CC50 [3, 29]: 34.4 µM
- GI50 [4]: 8.66 µM
- TGI [4]: 60.3 µM
- CC50 [4, 29]: > 100 µM
- GI50 [5]: 2.46 µM
- TGI [5]: 10.1 µM
- CC50 [5, 29]: 45.8 µM
- GI50 [6]: 1.74 µM
- TGI [6]: 8.43 µM
- CC50 [6, 29]: 59.5 µM
- GI50 [7]: 2.75 µM
- TGI [7]: 6.5 µM
- CC50 [7, 29]: 21.5 µM
- GI50 [8]: 5.54 µM
- TGI [8]: > 100 µM
- CC50 [8, 29]: > 100 µM
- GI50 [9]: 4.26 µM
- TGI [9]: 24 µM
- CC50 [9, 29]: > 100 µM
- GI50 [10]: 3.02 µM
- TGI [10]: 7.72 µM
- CC50 [10, 29]: 26.7 µM
- GI50 [11]: 2.56 µM
- TGI [11]: 10.5 µM
- CC50 [11, 29]: 34.7 µM
- GI50 [12]: 3.09 µM
- TGI [12]: 16.8 µM
- CC50 [12, 29]: > 100 µM
- GI50 [13]: 3 µM
- TGI [13]: 6.55 µM
- CC50 [13, 29]: 20.6 µM
- GI50 [14]: 2.58 µM
- TGI [14]: 8.09 µM
- CC50 [14, 29]: 30.8 µM
- GI50 [15]: 3.33 µM
- TGI [15]: 19.2 µM
- CC50 [15, 29]: 71.2 µM
- GI50 [16]: 5.61 µM
- TGI [16]: 46.1 µM
- CC50 [16, 29]: > 100 µM
- GI50 [17]: 2.67 µM
- TGI [17]: 8.3 µM
- CC50 [17, 29]: 35.2 µM
- GI50 [18]: 10.1 µM
- TGI [18]: 34.3 µM
- CC50 [18, 29]: > 100 µM
- GI50 [19]: 2.12 µM
- TGI [19]: 6.65 µM
- CC50 [19, 29]: 49.5 µM
- GI50 [20]: 3.39 µM
- TGI [20]: 20.5 µM
- CC50 [20, 29]: > 100 µM
- GI50 [21]: 2.89 µM
- TGI [21]: 13.8 µM
- CC50 [21, 29]: > 100 µM
- growth at 0.01 µM [22]: 108%
- growth at 0.1 µM [23]: 104%
- growth at 1 µM [24]: 107%
- growth at 10 µM [25]: -41%
- growth at 10 µM [26]: 19%
- growth at 10 µM [27]: 8%
- growth at 10 µM [28]: 5%
